According to PubChem BioAssay AID540269 (Sanford-Burnham Center for Chemical Genomics, 2011):
Active and inactive are the calls of the source. How the calls were made is not given here.

Molecular target: glucose-6-phosphate dehydrogenase-6-phosphogluconolactonase (Plasmodium falciparum 3D7)
Test: inhibition of P. falciparum G6PD activity – biochemical, kinetic NADPH detection, orthogonal assay, dose response (AID 540269)
Conditions: purified PfG6PD-6PGL

| Compound | IC50 |
| --- | --- |
| O=S(=O)(Nc1cc(Sc2cccc3cccnc23)c(O)c2ccccc12)c1ccc(F)cc1 | 59.4 µM |
| Cc1ccc2nc(-c3ccc(NC(=S)NC4CC(C)(C)NC(C)(C)C4)cc3)sc2c1 | > 80 µM (inactive) |
| COc1cc(O)c(C(=O)O)c(-c2cc(O)c(O)cc2C)c1 | 19.4 µM |
| CCCn1cc(S(=O)(=O)CC(=O)Nc2ccc(OC)cc2OC)c2ccccc21 | > 80 µM (inactive) |
| CCOC(=O)Cc1cc(=O)n2[nH]c(C(C)(C)C)cc2n1 | > 80 µM (inactive) |
| COc1ccc(CN(C)S(=O)(=O)c2nnc(NC(=O)c3ccc(C)cc3)s2)cc1OC | 29.9 µM |
| CCC(c1ccc(O)c(O)c1)C(CC)c1ccc(O)c(O)c1 (configuration not stated) | > 80 µM (inactive) |
| COC(=O)c1cc2c(n1S(=O)(=O)c1ccc(C)cc1)C(=O)C(=O)c1[nH]cc(C(=O)OCc3ccccc3)c1-2 | > 80 µM (inactive) |
| CCOC(=O)c1c(OCC)[nH]c2c1cc(O)c1ccccc12 | > 80 µM (inactive) |
| O=c1ccsn1Cc1ccccc1 | 57.9 µM |
| C=CCOc1c(Cl)cc(CNc2ccc(N(C)C)cc2)cc1OC | 61.5 µM |
| COc1ccccc1NS(=O)(=O)c1cc(NC(=O)c2ccc(Cl)nc2)ccc1N1CCCC1 | 32.1 µM |
| O=c1c2ccccc2sn1-c1ccccc1F | 15.5 µM |
| NS(=O)(=O)c1ccc(-c2ccc(C=C3C(=O)NC(=O)NC3=O)o2)cc1 | 40.2 µM |
| CCOc1ccc(S(=O)(=O)Nc2cc(SCC(=O)O)c(O)c3ccccc23)cc1 | 48.2 µM |
| COc1ccc2nc3cc(Cl)ccc3c(Nc3ccc(O)c(CN4CCN(C)CC4)c3)c2c1 | > 80 µM (inactive) |
| O=[N+]([O-])c1ccc(Sc2cccc3cccnc23)c2cccnc12 | > 80 µM (inactive) |
| CCN(CC)c1nc(N)nc(NS(=O)(=O)c2ccc(Cl)cc2)n1 | > 80 µM (inactive) |
| O=C1C(=Cc2cccc(O)c2O)SC(=S)N1CCCN1CCOCC1 | 28.2 µM |
| C=CCc1ccccc1OCC(=O)N/N=C/c1ccccc1OCC | > 80 µM (inactive) |
| N#CC1=C(N)Oc2c(O)cc3ccccc3c2C1c1ccsc1 (configuration not stated) | 55.6 µM |

| Compound | IC50 |
| --- | --- |
| CCOC(=O)C1CCCN(C(=O)Cn2sc3nc(C)cc(C)c3c2=O)C1 (configuration not stated) | 50.7 µM |
| Cn1c(=O)[nH]c(=O)c2c1nc(SCCN1CCCCC1)n2CCCc1ccccc1 | 56.7 µM |
| Oc1ccc(C23CC4CC(CC(C4)C2)C3)cc1O | 37.8 µM |
| Cc1cccc(C2(c3cccc(C)c3)CC2C(=O)Nc2ccc([N+](=O)[O-])cc2O)c1 (configuration not stated) | > 80 µM (inactive) |
| CN(C)c1ccc(/C=C/c2ccc3c4ccccc4ccc3[n+]2-c2ccccc2)cc1 | 44.3 µM |
| CCn1c(SCc2nc3scc(-c4ccccc4)c3c(=O)[nH]2)nnc1-c1cccs1 | 58 µM |
| Cc1ccc(S(=O)(=O)N(C(=O)c2ccncc2)c2ccc(OC(=O)c3ccncc3)c3ccccc23)cc1 | 55.7 µM |
| Cc1ccc(C)c(-n2sc3ccc(F)cc3c2=O)c1 | 11.4 µM |
| O=c1[nH]c2ccccc2n2c(-c3ccccc3)nnc12 | 13.2 µM |
| [O-]/[N+](=C\c1ccccc1)c1ccc(Br)cc1 | > 80 µM (inactive) |
| CCc1ccc(S(=O)(=O)Nc2cc(SCC(=O)O)c(O)c3ccccc23)cc1 | 44.6 µM |
| Cc1cc(C)c2sc(NC(=O)C3=COCCO3)nc2c1 | 30.2 µM |
| O=S(=O)(Nc1cc(Sc2ncn[nH]2)c(O)c2ccccc12)c1ccccc1 | 23.9 µM |
| COC(=O)CCC(=O)OC1(C)C(=O)C2=CN(C3CC3)C(c3ccc(OC)cc3)=CC2=C(Br)C1=O (configuration not stated) | 45.8 µM |
| CN(C)c1ccc(C=c2c3cc(O)ccc3n3c2cc(-c2ccccc2)[n+]3C)cc1 | > 80 µM (inactive) |
| COc1ccc(C(=O)Nc2nnc(S(=O)(=O)N3CCOCC3)s2)cc1 | 32.8 µM |
| Cc1cc(C)c2c(=O)n(CC(=O)Nc3cccc(Cl)c3C)sc2n1 | 49.6 µM |
| O=C(CNC(=O)c1cccs1)NCC(=O)OCC(=O)c1ccc([N+](=O)[O-])cc1 | 62.9 µM |
| CN(C)c1ccc(C=c2c3ccccc3n3c2c2ccccc2[n+]3C)cc1 | 32.8 µM |
| COc1ccc(C(=O)/C=C2\Sc3ccccc3N2C)cc1 | 43.4 µM |
| O=C1Nc2cc(C(=O)NCCCN3CCCC3)ccc2S/C1=C/c1cccc(Cl)c1 | 34.2 µM |
